Source: PubChem BioAssay AID588709 (The Scripps Research Institute Molecular Screening Center, 2011)
pIC50: −log10 of the molar value. Values joined by “and” are separate entries in the source; they are usually repeats but may differ in a detail not shown here. Equal values may be shown once. Active and inactive are the calls of the source. The rule behind the calls is not given here.

System: HEK293 cytotoxicity, ATP luminescence
Assay: HEK cell viability loss – luminescence, HEK cells, counter-screen for IDE inhibitor project, dose response (AID 588709)

Compound	IC50	pIC50
Cn1c(SCc2nc3ccccc3[nH]2)nnc1-c1cccc(Cl)c1	> 71.5 µM (inactive)	–
O=C(Nc1cccc(C(F)(F)F)c1)c1csc(-c2ccccc2)n1	33.3 µM (inactive)	–
O=C(CSc1nnc(-c2cccc(Cl)c2)n1Cc1ccco1)Nc1ccc2c(c1)OCCO2	29.7 µM (inactive)	–
O=C(Nc1cccc(C(F)(F)F)c1)c1csc(Cc2cccc(C(F)(F)F)c2)n1	29.5 µM (inactive)	–
O=C(CSc1nnc(-c2cccc(Cl)c2)n1Cc1ccco1)Nc1ccc2cn[nH]c2c1	> 71.5 µM (inactive)	–
O=C(CSc1nnc(-c2cccc(Cl)c2)n1Cc1ccco1)c1ccc2ccccc2c1	30.7 µM (inactive)	–
Cc1ccc(C)c(N2C(=N)S/C(=C\c3ccc(-c4ccccc4C(=O)O)o3)C2=O)c1	> 71.5 µM (inactive)	–
COc1ccc(C(=O)N2CCN(C(=O)C3COc4ccccc4O3)CC2)cc1OC (stereo unspecified)	> 71.5 µM (inactive)	–
O=C(C1CC1)N1CCN(c2ccnc3cc(Cl)ccc23)CC1	> 71.5 µM (inactive)	–
CC(Sc1nnc(-c2cccnc2)n1-c1ccccc1F)C(=O)N1CCCc2ccccc21 (stereo unspecified)	32.1 µM (inactive)	–
Cc1c(CCC(=O)NCCCn2ccnc2)c(=O)oc2cc3oc4c(c3cc12)CCCC4	21.4 µM (inactive)	–
COc1cccc(-c2nnc(SCc3nc4ccccc4[nH]3)n2Cc2ccco2)c1	36.5 µM (inactive)	–
Cc1ccc(-c2nc(C(=O)Nc3cccc(C(F)(F)F)c3)cs2)cc1	36.1 µM (inactive)	–
COc1ccc(NC(=O)CSc2nnc(CN3CCOCC3)n2C)cc1Cl	> 71.5 µM (inactive)	–
Clc1cccc(-c2nnc(SCc3nc4ccccc4[nH]3)n2Cc2ccco2)c1	23.3 µM (inactive)	–
COc1cc(/C=C2\SC(=S)N(NC(C)=O)C2=O)ccc1OC(=O)c1ccco1	> 71.5 µM (inactive)	–

Compound	IC50	pIC50
Cc1ccc(NC(=O)CSc2nnc(-c3cccc(Cl)c3)n2Cc2ccco2)c(C)c1	35.6 µM (inactive)	–
CCOc1ccc2[nH]c3c(N4CCN(C(=O)c5ccco5)CC4)ncnc3c2c1	21.1 µM (inactive)	–
O=C(Nc1ccc2oc(-c3cccnc3)nc2c1)c1ccc2c(c1)OCCO2	> 71.5 µM (inactive)	–
Nc1c(C(=O)Nc2nccs2)sc2nc(-c3cccs3)cc(C(F)(F)F)c12	–	5.04
O=C(Nc1cc(C(F)(F)F)cc(C(F)(F)F)c1)c1csc(-c2ccncc2)n1	> 71.5 µM (inactive)	–
Cc1nc(-c2cccnc2)sc1C(=O)Nc1cccc(C(F)(F)F)c1	15.8 µM (inactive)	–
Clc1cccc(-c2nnc(SCc3nc4ccccc4[nH]3)n2-c2ccccc2)c1	31.2 µM (inactive)	–
Cc1cccc(-c2nnc(SCc3nc4ccccc4[nH]3)n2Cc2ccco2)c1	34.8 µM (inactive) and 32.7 µM (inactive)	–
Cn1c(=O)c(C(=O)CN2CCCc3ccccc32)c(N)n(Cc2ccccc2)c1=O	30.1 µM (inactive)	–
O=C(Nc1cccc(C(F)(F)F)c1)c1csc(-c2ccncc2)n1	24.1 µM (inactive)	–
O=C(CSc1nnc(-c2cccc(Cl)c2)n1Cc1ccco1)Nc1ccccc1C(F)(F)F	30.9 µM (inactive)	–
COc1ccc(-c2nc(C(=O)Nc3cccc(C(F)(F)F)c3)cs2)cc1	67.8 µM (inactive)	–
O=c1c2ccccc2sn1-c1cc(S(=O)(=O)N2CCOCC2)ccc1N1CCOCC1	–	5.02
O=C(Nc1cccc(C(F)(F)F)c1)c1csc(-c2cccc(C(F)(F)F)c2)n1	55.9 µM (inactive)	–
CCN(CC)c1ccc(/C=C2\C(=N)N3N=C(CC(=O)N4CCOCC4)SC3=NC2=O)cc1	> 71.5 µM (inactive)	–
